Consider one compound from US4803074A, “FR-900848 substance and preparation thereof” (priority 1987, dated 1989).

One data set concerns fungi. Description: In vitro antimicrobial activity (summary statement). The settings on record: for example Aspergillus niger, Geotrichum candidum, Trichophyton asteroides. Type of data set: cell-based. As to the method:
(§1) In vitro antimicrobial activity was determined by the two-fold agar-plate dilution method as described below.
(§2) One loopful of an overnight culture of each test strain in malt extract broth was streaked on malt extract agar containing graded concentrations of FR-900848 substance and MIC was determined after incubation at 37° C. for 20 hours.

Data set [1] relates to Mucor rouxianus (Calmette) Wehmer. Description: MIC (minimal inhibitory concentration), two-fold agar-plate dilution method. Type of data set: cell-based. The settings on record: 20 h, read-out: MIC (minimal inhibitory concentration). As to the method: as §1, §2
Data set [2] relates to Aspergillus niger IFO 4417. Described as above. The following applies: IFO4417, malt extract agar, 37° C., 20 hours. Type of data set: cell-based. Here is the method: as §1, §2
A further data set relates to Aureobasidium pullulans. Described as above. Type of data set: cell-based. The settings on record: malt extract agar, 37° C., 20 hours. As to the method: as §1, §2
The subject of the next data set is Sclerotinia arachidis. The data set is described as above. Type of data set: cell-based. The following applies: malt extract agar, 37° C., 20 hours. Here is the method: as §1, §2
A further data set has as its system Geotrichum candidum. The description is as above. Type of data set: cell-based. The settings on record: malt extract agar, 37° C., 20 hours. As to the method: as §1, §2
The next data set relates to Trichophyton asteroides. Described as above. Type of data set: cell-based. The following applies: malt extract agar, 37° C., 20 hours. As to the method:
as §1, §2

For another data set, the system named is Fusarium oxysporum. The description is as above. The settings on record: malt extract agar, 37° C., 20 hours. Type of data set: cell-based. As to the method: as §1, §2
Data set [3] can be described thus: Acute toxicity by intraperitoneal injection. The following applies: mouse, in vivo, ip, mice (ICR, male, 4 weeks old). From the text:
Acute toxicity of FR-900848 substance in mice (ICR, male, 4 weeks old) by intraperitoneal injection is more than 1.0 g/kg.

The nature of the next data set: Solubility. Type of data set: physicochemical.

Converted amounts (≈) assume the structure as drawn.

What is called LD50 is the dose expected to kill half of the subjects tested. Low values mean greater toxicity, high ones lower toxicity. Turning to `CC1CC1C=CC1CC1C1CC1C1CC1C1CC1C=CC=CC(=O)NCC1OC(N2CCC(=O)NC2=O)C(O)C1O` (centres unmarked) [FR-900848 substance], the “antimicrobial activity against fungi” value in the data set on fungi is listed as “showed antimicrobial activity”. The MIC in data set [1] came to 0.03 µg/mL (≈ 0.053 µM); in data set [2], 0.015 µg/mL (≈ 0.0265 µM); with Aureobasidium pullulans it was 0.03 µg/mL (≈ 0.053 µM); in the data set with Sclerotinia arachidis, 0.05 µg/mL (≈ 0.0884 µM); with Geotrichum candidum, 0.12 µg/mL (≈ 0.212 µM); with Trichophyton asteroides, 0.5 µg/mL (≈ 0.884 µM). Moreover, the MIC in the data set with Fusarium oxysporum was 0.05 µg/mL (≈ 0.0884 µM). This compound had an LD50 in data set [3] of over 1000 mg/kg. Further, the Solubility entry in the data set “Solubility” (chloroform) is recorded as “slightly soluble”; in “Solubility” (dimethylsulfoxide), “soluble”; in “Solubility” (ethyl acetate), “slightly soluble”; in “Solubility” (methanol), “slightly soluble”; in the data set “Solubility” (water) it was “insoluble”.
